≈ marks a conversion by molar mass, not a printed value. Entries after “also recorded” stand apart in the source; their conditions may differ. Like-named read-outs stand apart in the source and are kept apart here.
Experiments:
fungi = assay: Antimicrobial activity (MIC), fungi; type: cell-based; conditions: of all the mimics tested
Experimental: (§1) The antimicrobial activity of the compounds according to the present invention were compared with the results obtained for squalamine as reported in Proc. Nat. Acad. Sci. USA 90:1354 (1993), supra, the disclosure of which is incorporated in toto herein. The data reported in the following table is the minimum inhibitory concentration (MIC) required for complete inhibition of microbial growth. The MIC was determined utilizing known micro-broth dilution methods in which inocula of 10^6 /ml of the test organism were incubated in 0.5× trypticase soy broth at 35° C. for 24 hours. MIC's were also tested under various pH conditions, with calcium chloride or magnesium chloride, or with immobilized horse serum.

[1] = system: various groups of microorganisms; assay: Antimicrobial activity (MIC), all microorganisms tested; type: cell-based
Experimental: as §1
(§2) The numbers in parentheses contained in the table correspond to accession numbers with the American Type Culture Collection (reference strains were either obtained from the American Type Culture Collection or from the Microbiology Laboratory at Memorial Sloan-Kettering Cancer Center; Bacterial strains were maintained on Columbia 5% sheep blood agar plates, and fungi were maintained on Sabouraud Dextrose agar plates).

gram positive cocci = assay: Antimicrobial activity (MIC), gram positive cocci; type: cell-based; conditions: of all the mimics tested
Experimental: as §1

[2] = Hemolytic activity, minimal hemolytic concentration (MHC); type: cell-based, sheep;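 on MCC: MCC here is the minimal hemolytic concentration (MHC)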
Experimental: (§3) Hemolytic activity of the squalamine mimics according to the present invention were also studied by incubating sheep red blood cells for 24 hours at 37° C. in saline (final concentration of 0.5%) with or without respective concentrations of the squalamine mimics. The minimal hemolytic concentration (MHC) was determined as the lowest concentration of a mimic that raised visible hemolysis.

sheep red blood cells = assay: as above; type: cell-based
Experimental: as §3

P. vulgaris (13315) = assay: MIC, micro-broth dilution; type: cell-based; conditions: Proteus vulgaris, 35° C., 24 hours, read-out: ANTIMICROBIAL ACTIVITY (MIC)
Experimental: as §1, §2

S. pyrogenes (19615) = assay: MIC, micro-broth dilution; type: cell-based; conditions: 24 h, read-out: ANTIMICROBIAL ACTIVITY (MIC)
Experimental: as §1, §2

S. epidermidis (12228) = assay: MIC, micro-broth dilution; type: cell-based; conditions: Staphylococcus epidermidis, 35° C., 24 hours, read-out: ANTIMICROBIAL ACTIVITY (MIC)
Experimental: as §1, §2

S. aureus (H20809) = assay: MIC, micro-broth dilution; type: cell-based; conditions: Staphylococcus aureus, 24 h, read-out: ANTIMICROBIAL ACTIVITY (MIC)
Experimental: as §1, §2

E. coli (25922) = assay: MIC, micro-broth dilution; type: cell-based; conditions: Escherichia coli, 35° C., 24 hours, read-out: ANTIMICROBIAL ACTIVITY (MIC)
Experimental: as §1, §2

S. agalactiae (13813) = assay: MIC, micro-broth dilution; type: cell-based; conditions: Streptococcus agalactiae, 35° C., 24 hours, read-out: ANTIMICROBIAL ACTIVITY (MIC)
Experimental: as §1, §2

S. aureus (25923) = assay: MIC, micro-broth dilution; type: cell-based; conditions: Staphylococcus aureus, 35° C., 24 hours, read-out: ANTIMICROBIAL ACTIVITY (MIC)
Experimental: as §1, §2

P. aeruginosa (2853) [3] = assay: MIC, micro-broth dilution; type: cell-based; conditions: Pseudomonas aeruginosa, 24 h, read-out: ANTIMICROBIAL ACTIVITY (MIC)
Experimental: as §1, §2

S. aureus (29213) [4] = assay: MIC, micro-broth dilution; type: cell-based; conditions: Staphylococcus aureus, 24 h, read-out: ANTIMICROBIAL ACTIVITY (MIC)
Experimental: as §1, §2

S. marcescens (13880) [5] = assay: MIC, micro-broth dilution; type: cell-based; conditions: for MIC: Serratia marcescens, 24 h, read-out: ANTIMICROBIAL ACTIVITY (MIC)
Experimental: as §1, §2

C. albicans (90028) = assay: MIC, micro-broth dilution; type: cell-based; conditions: Candida albicans, 35° C., 24 hours, read-out: ANTIMICROBIAL ACTIVITY (MIC)
Experimental: as §1, §2

E. faecalis (29212) = assay: MIC, micro-broth dilution; type: cell-based; conditions: Enterococcus faecalis, 35° C., 24 hours, read-out: ANTIMICROBIAL ACTIVITY (MIC)
Experimental: as §1, §2

P. aeruginosa (10145) = assay: MIC, micro-broth dilution; type: cell-based; conditions: Pseudomonas aeruginosa, 35° C., 24 hours, read-out: ANTIMICROBIAL ACTIVITY (MIC)
Experimental: as §1, §2

K. pneumoniae (13883) = assay: MIC, micro-broth dilution; type: cell-based; conditions: Klebsiella pneumoniae, read-out: ANTIMICROBIAL ACTIVITY (MIC)
Experimental: as §1, §2

E. cloacae (13047) = assay: MIC, micro-broth dilution; type: cell-based; conditions: Enterobacter cloacae, 35° C., 24 hours, read-out: ANTIMICROBIAL ACTIVITY (MIC)
Experimental: as §1, §2

E. faecium (T6480-9) = assay: MIC, micro-broth dilution; type: cell-based; conditions: Enterococcus faecium, 35° C., 24 hours, read-out: ANTIMICROBIAL ACTIVITY (MIC)
Experimental: as §1, §2

C. neoformans (90012) = assay: MIC, micro-broth dilution; type: cell-based; conditions: Cryptococcus neoformans, 24 h, read-out: ANTIMICROBIAL ACTIVITY (MIC)
Experimental: as §1, §2

A. fumigatus (H1120) = assay: MIC, micro-broth dilution; type: cell-based; conditions: Aspergillus fumigatus, 35° C., 24 hours, read-out: ANTIMICROBIAL ACTIVITY (MIC)
Experimental: as §1, §2

A. fumigatus (H29709) = assay: MIC, micro-broth dilution; type: cell-based; conditions: Aspergillus fumigatus, 35° C., 24 hours, read-out: ANTIMICROBIAL ACTIVITY (MIC)
Experimental: as §1, §2

S. pneumoniae (6305) = assay: MIC, micro-broth dilution; type: cell-based; conditions: Streptococcus pneumoniae, 35° C., 24 hours, read-out: ANTIMICROBIAL ACTIVITY (MIC)
Experimental: as §1, §2

C. neoformans (M68979) = assay: MIC, micro-broth dilution; type: cell-based; conditions: Cryptococcus neoformans, 24 h, read-out: ANTIMICROBIAL ACTIVITY (MIC)
Experimental: as §1, §2

P. vulgaris = P. vulgaris ATCC 13883; as reported in the literature; cited from earlier work
S. marcescens (13880) [6] = conditions: known; cited from earlier work
S. aureus (29213) [7] = conditions: S. aureus ATCC 29213; as reported in the literature; cited from earlier work
P. aeruginosa (2853) [8] = conditions: P. aeruginosa ATCC 27853; as reported in the literature; cited from earlier work
[9] = system: various groups of microorganisms; conditions: broad spectrum of microorganisms; cited from earlier work

Structure (SMILES) | antimicrobial activity (in words) [1] | hemolytic activity (in words) (sheep red blood cells) | MIC (P. vulgaris (13315)) | MIC (S. pyrogenes (19615)) | MIC (S. epidermidis (12228)) | MIC (S. aureus (H20809)) | MIC (E. coli (25922)) | MIC (S. agalactiae (13813)) | MIC (S. aureus (25923)) | MIC (P. aeruginosa (2853) [3]) | MIC (S. aureus (29213) [4]) | MIC (S. marcescens (13880) [5]) | MIC (C. albicans (90028)) | MIC (E. faecalis (29212)) | MIC (P. aeruginosa (10145)) | MIC (E. cloacae (13047)) | MIC (E. faecium (T6480-9)) | MIC (C. neoformans (90012)) | MIC (A. fumigatus (H1120)) | MIC (A. fumigatus (H29709)) | also measured
C[C@H](CCC(=O)NCCCNCCCCNCCCN)[C@H]1CC[C@H]2[C@@H]3CC[C@@H]4C[C@H](O)CC[C@]4(C)[C@H]3CC[C@]12C [SM-25] | highly active; also recorded: more activity than SM-8, SM-14, and SM-22 | unwanted hemolytic activity | 12.5 mg/L (≈ 22.3 µM) | 0.78 mg/L (≈ 1.39 µM) | 0.39 mg/L (≈ 0.695 µM) | 0.39 mg/L (≈ 0.695 µM) | 1.56 mg/L (≈ 2.78 µM) | 0.78 mg/L (≈ 1.39 µM) | 0.78 mg/L (≈ 1.39 µM) | 0.78 mg/L (≈ 1.39 µM) | 0.78 mg/L (≈ 1.39 µM) | > 100 mg/L | 3.13 mg/L (≈ 5.58 µM) | 3.13 mg/L (≈ 5.58 µM) | 3.13 mg/L (≈ 5.58 µM) | > 100 mg/L | 3.13 mg/L (≈ 5.58 µM) | 0.39 mg/L (≈ 0.695 µM) | 12.5 mg/L (≈ 22.3 µM) | 12.5 mg/L (≈ 22.3 µM) | potency ranking against fungi (fungi): most potent activity against gram positive cocci and fungi of all the mimics tested; potency ranking against gram positive cocci (gram positive cocci): most potent activity against gram positive cocci and fungi of all the mimics tested; minimal hemolytic concentration (MHC) at 24 h ([2]; sheep red blood cells, 24 hours at 37° C. in saline): 50 µg/mL; MIC (K. pneumoniae (13883); 24 h): > 100 mg/L; MIC (S. pneumoniae (6305)): 3.13 mg/L (≈ 5.58 µM); MIC (C. neoformans (M68979)): 0.39 mg/L (≈ 0.695 µM)
C[C@H](CCC(=O)NCCCNCCCCNCCCN)[C@H]1CC[C@H]2[C@@H]3[C@H](O)C[C@@H]4C[C@H](O)CC[C@]4(C)[C@H]3CC[C@]12C [SM-34] | highly active | unwanted hemolytic activity | 12.5 mg/L (≈ 21.7 µM) | 0.78 mg/L (≈ 1.35 µM) | 0.78 mg/L (≈ 1.35 µM) | 1.56 mg/L (≈ 2.7 µM) | 3.13 mg/L (≈ 5.43 µM) | 1.56 mg/L (≈ 2.7 µM) | 0.78 mg/L (≈ 1.35 µM) | 12.5 mg/L (≈ 21.7 µM) | 1.56 mg/L (≈ 2.7 µM) | 12.5 mg/L (≈ 21.7 µM) | 3.13 mg/L (≈ 5.43 µM) | 3.13 mg/L (≈ 5.43 µM) | 25 mg/L (≈ 43.3 µM) | 12.5 mg/L (≈ 21.7 µM) | 6.25 mg/L (≈ 10.8 µM) | 0.78 mg/L (≈ 1.35 µM) | 12.5 mg/L (≈ 21.7 µM) | 12.5 mg/L (≈ 21.7 µM) | MCC at 24 h ([2]; sheep, red blood cells): 25 µg/mL; activity against S. marcescens (S. marcescens (13880) [5]; in words): found even against S. marcescens; also recorded: effective against S. marcescens; MIC (K. pneumoniae (13883); K. pneumoniae (13883), 35° C., 24 hours): 8.25 mg/L (≈ 14.3 µM); MIC (S. pneumoniae (6305)): 3.13 mg/L (≈ 5.43 µM); MIC (C. neoformans (M68979)): 3.13 mg/L (≈ 5.43 µM)
CC(C)C(CC[C@@H](C)[C@H]1CC[C@H]2[C@@H]3[C@H](O)C[C@H]4C[C@@H](NCCCNCCCCN)CC[C@]4(C)[C@H]3CC[C@]12C)OS(=O)(=O)O (stereo partly drawn) [squalamine, 3β-N-1-{N-[3-(4-aminobutyl)]-1,3-diaminopropane}-7α,24.zeta.-dihydroxy-5α-cholestane 24-sulfate] | – | – | – | – | – | – | – | – | – | – | – | – | – | – | – | – | – | – | – | – | MIC of squalamine (P. vulgaris): 4 to 8 mg/L; resistance of S. marcescens to squalamine (S. marcescens (13880) [6]): known to be resistant to squalamine; MIC of squalamine (S. aureus (29213) [7]): 1 to 2 mg/L; MIC of squalamine (P. aeruginosa (2853) [8]): 4 to 8 mg/L; antimicrobial activity of squalamine (in words) [9]: potent antimicrobial activity against a broad spectrum of microorganisms
